Data from patent US20230021483A1, “[…] […] METHOD AND CLASSIFICATION OF PHARMACEUTICAL COMPONENTS BY USING TRANSCRIPTOMES” (National Institutes of Biomedical Innovation, Health and …, priority 2016, published 2023).
“Also recorded” adds a separate entry of the source.

Assays:
Assay type in all cases: in vivo, C57BL/6 mice
[1] = tested on: preferentially upregulated genes in LV, SP, LN; assay: Z-score-based differential gene expression analysis (adjuvant group- or adjuvant-associated genes, 40 module mapping, TargetMine annotation)
Procedure, shortened: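 Gene groups for each organ were built from combined z-score cutoffs across adjuvants, ranging from z>1 to z>3. Scores came from fold changes standardized per gene over the whole organ data set, with the three replicate z-scores added per adjuvant; sums above 3 marked preferential expression.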

[2] = tested on: inguinal lymph nodes (LN); assay: Whole organ transcriptome (GeneChip microarray) of draining inguinal lymph nodes 6 h after adjuvant administration: sDEGs, gene modules, hierarchical clustering; as to adjuvant group (cluster) in LN: key: G1 (interferon signaling); G2 (metabolism of lipids and lipoproteins); G3 (response to stress); G4 (response to wounding); G5 (phosphate-containing compound metabolic process); G6 (phagosome)
LV, SP and LNs = assay: Whole organ transcriptome across organs (adjuvant gene space): gene responses and adjuvant grouping; conditions: hierarchical clustering; LV, SP and/or LNs

`Nc1nc2c(ncn2[C@@H]2O[C@@H]3COP(=O)(O)O[C@H]4[C@@H](O)[C@H](n5cnc6c(=O)[nH]c(N)nc65)O[C@@H]4COP(=O)(O)O[C@H]3[C@H]2O)c(=O)[nH]1` [cdiGMP, Cyclic diguanylate monophosphate] was tested, and the “Tor1aip2 1418115_s_at (Group G1, Modules 20)” value ([1]; ID, LV, sample x3) was 2.42, the “Tor1aip2 1418116_at (Group G1, Modules 20)” value ([1]; ID, LV, sample x3) was 2.19 and the “Tor1aip2 1435526_at (Group G1, Modules 20)” value ([1]; ID, LV, sample x3) was 1.54. For the same compound, the “Trim12a 1437432_a_at (Group G1, Modules 20)” value ([1]; ID, LV, sample x3) was 1.46, the “Uba7 1426970_a_at (Group G1, Modules 20)” value ([1]; ID, LV, sample x3) was 1.41 and the “interferon induction relative to adjuvants targeting the same receptor” value ([1]; LN, z-scores and 40 module mapping) was “strongest interferon inducer; also recorded: induced more interferon responses in vivo than the other sting ligands”. For the same compound, the “preference, 1417252_at Ptgs2” value ([1]; among cdiGMP/cGAMP/DMXAA, LN) was “cdiGMP”, the “preference, 1417263_at Ptgs2” value ([1]; among cdiGMP/cGAMP/DMXAA, LN) was “cdiGMP” and the “preference, 1418424_at Tnfaip6” value ([1]; among cdiGMP/cGAMP/DMXAA, LN) was “cdiGMP”. The “preference, 1419132_at Tfr2” value ([1]; among cdiGMP/cGAMP/DMXAA, LN) was “cdiGMP”, the “preference, 1419508_at Ripk1” value ([1]; among cdiGMP/cGAMP/DMXAA, LN) was “cdiGMP” and the “preference, 1419534_at Olr1” value ([1]; among cdiGMP/cGAMP/DMXAA, LN) was “cdiGMP”. For the same compound, the “preference, 1419721_at Niacr1” value ([1]; among cdiGMP/cGAMP/DMXAA, LN) was “cdiGMP”, the “preference, 1421457_a_at Samsn1” value ([1]; among cdiGMP/cGAMP/DMXAA, LN) was “cdiGMP” and the “preference, 1421473_at Il1a” value ([1]; among cdiGMP/cGAMP/DMXAA, LN) was “cdiGMP”. The “preference, 1421578_at Ccl4” value ([1]; among cdiGMP/cGAMP/DMXAA, LN) was “cdiGMP”, the “preference, 1421679_a_at Cdkn1a” value ([1]; among cdiGMP/cGAMP/DMXAA, LN) was “cdiGMP” and the “preference, 1422054_a_at 5kil” value ([1]; among cdiGMP/cGAMP/DMXAA, LN) was “cdiGMP”. For the same compound, the “preference, 1422305_at Ifnb1” value ([1]; among cdiGMP/cGAMP/DMXAA, LN) was “cdiGMP”, the “preference, 1423028_at Ifna2” value ([1]; among cdiGMP/cGAMP/DMXAA, LN) was “cdiGMP” and the “preference, 1424638_at Cdkn1a” value ([1]; among cdiGMP/cGAMP/DMXAA, LN) was “cdiGMP”. The “preference, 1425687_at Cflar” value ([1]; among cdiGMP/cGAMP/DMXAA, LN) was “cdiGMP”, the “preference, 1425837_a_at Ccrn4l” value ([1]; among cdiGMP/cGAMP/DMXAA, LN) was “cdiGMP” and the “preference, 1427736_a_at Ccrl2” value ([1]; among cdiGMP/cGAMP/DMXAA, LN) was “cdiGMP”. For the same compound, the “preference, 1428027_at LOC100653389” value ([1]; among cdiGMP/cGAMP/DMXAA, LN) was “cdiGMP”, the “preference, 1428735_at Cd69” value ([1]; among cdiGMP/cGAMP/DMXAA, LN) was “cdiGMP” and the “preference, 1433508_at Klf6” value ([1]; among cdiGMP/cGAMP/DMXAA, LN) was “cdiGMP”. For the same compound, the “preference, 1434350_at Csrnp1” value ([1]; among cdiGMP/cGAMP/DMXAA, LN) was “cdiGMP”, the “preference, 1436387_at C330006P03Rik///Homer1” value ([1]; among cdiGMP/cGAMP/DMXAA, LN) was “cdiGMP” and the “preference, 1439349_at Sbno2” value ([1]; among cdiGMP/cGAMP/DMXAA, LN) was “cdiGMP”. The “preference, 1439680_at Tnfsf10” value ([1]; among cdiGMP/cGAMP/DMXAA, LN) was “cdiGMP”, the “preference, 1439981_at Tespa1” value ([1]; among cdiGMP/cGAMP/DMXAA, LN) was “cdiGMP” and the “preference, 1441843_s_at 5230400M03Rik” value ([1]; among cdiGMP/cGAMP/DMXAA, LN) was “cdiGMP”. For the same compound, the “preference, 1442556_at ---” value ([1]; among cdiGMP/cGAMP/DMXAA, LN) was “cdiGMP”, the “preference, 1443414_at C78513” value ([1]; among cdiGMP/cGAMP/DMXAA, LN) was “cdiGMP” and the “preference, 1444010_at Eif4e” value ([1]; among cdiGMP/cGAMP/DMXAA, LN) was “cdiGMP”. For the same compound, the “preference, 1444598_at ---” value ([1]; among cdiGMP/cGAMP/DMXAA, LN) was “cdiGMP”, the “preference, 1445534_at ---” value ([1]; among cdiGMP/cGAMP/DMXAA, LN) was “cdiGMP” and the “preference, 1446245_at ---” value ([1]; among cdiGMP/cGAMP/DMXAA, LN) was “cdiGMP”. The “preference, 1448325_at Ppp1r15a” value ([1]; among cdiGMP/cGAMP/DMXAA, LN) was “cdiGMP”, the “preference, 1448724_at Cish” value ([1]; among cdiGMP/cGAMP/DMXAA, LN) was “cdiGMP” and the “preference, 1449169_at Has2” value ([1]; among cdiGMP/cGAMP/DMXAA, LN) was “cdiGMP”. For the same compound, the “preference, 1449311_at Bach1” value ([1]; among cdiGMP/cGAMP/DMXAA, LN) was “cdiGMP”, the “preference, 1450297_at Il6” value ([1]; among cdiGMP/cGAMP/DMXAA, LN) was “cdiGMP” and the “preference, 1451340_at Arid5a” value ([1]; among cdiGMP/cGAMP/DMXAA, LN) was “cdiGMP”. The “preference, 1453636_at Pcgf5” value ([1]; among cdiGMP/cGAMP/DMXAA, LN) was “cdiGMP”, the “preference, 1453851_a_at Gadd45g” value ([1]; among cdiGMP/cGAMP/DMXAA, LN) was “cdiGMP” and the “preference, 1455197_at Rnd1” value ([1]; among cdiGMP/cGAMP/DMXAA, LN) was “cdiGMP”. The “preference, 1455899_x_at Socs3” value ([1]; among cdiGMP/cGAMP/DMXAA, LN) was “cdiGMP”, the “preference, 1457404_at Nfkbiz” value ([1]; among cdiGMP/cGAMP/DMXAA, LN) was “cdiGMP” and the “preference, 1457888_at ---” value ([1]; among cdiGMP/cGAMP/DMXAA, LN) was “cdiGMP”. The “preference, 1457944_at ---” value ([1]; among cdiGMP/cGAMP/DMXAA, LN) was “cdiGMP”, the “preference, 1458376_at B930025B16Rik” value ([1]; among cdiGMP/cGAMP/DMXAA, LN) was “cdiGMP” and the “preference, 1458589_at ---” value ([1]; among cdiGMP/cGAMP/DMXAA, LN) was “cdiGMP”. The “preference, 1459144_at ---” value ([1]; among cdiGMP/cGAMP/DMXAA, LN) was “cdiGMP”, the “adjuvant group-associated biological features” value ([1]; z-score selected genes, TargetMine and IPA upstream cytokine analyses) was “strongly associated with type I and type II interferon responses” and the “module M40^LN (immune system process; dendritic cells, macrophages, neutrophils, stromal cells)” value ([2]; LN, 6 h) was “strongly induced”. For the same compound, the “adjuvant group (cluster) in LN” value ([2]; hierarchical clustering, lymph node) was “G1” and the “adjuvant group (cluster) within the adjuvant gene space” value (LV, SP and LNs) was “group (G) 1”.
